How the values were obtained:
K562 leukemia cells = experiment: Living tumor cells (K562) in the presence of NK cells; assay type: cell-based, human
Protocol: (§1) Isolated PBMCs, NK cells or CD8 positive cells were plated in Xvivo medium at 1.5*10^5 cells per in 96 well culture plates in the presence of 0.3*10^4 tumor cells where indicated. Cytokine secretion was determined by ELISA, immune cell activation (using Beckman-Coulter Abs CD25-PC5, CD69-PC7), cell viability and numbers by flow cytometry (Beckman-Coulter FC500 or Gallios) using 7-AAD exclusion as criterion for living cells. NK cells were isolated from PBMCs and were incubated with and without compounds, either alone or in co-culture with K562 leukemia cells.

[1] = system: NK cells & K562 leukemia cells; experiment: NK cells alone or in co-culture with K562 leukemia cells: IFN-gamma, TNF-alpha, granzyme, CD25+CD69+; assay type: cell-based, human
Protocol: as §1, with “living cells. One of the physiological functions of NK cells in anti-tumor immunity is the recognition and destruction of tumor cells that have a low expression of MHC-molecules, thus avoiding recognition by CD8 T cells. Downregulation of MHC molecules is often actively mediated by an infecting virus or occurs during development of malignant neoplasms. The […] leukemia cell line expresses only very low amounts of MHC-molecules and thus is often used as a model system to investigate anti-tumor NK cell reactivity. NK cells” for “living cells. NK cells”

CC(C)NC(=O)c1cc2c(cc1F)S(=O)(=O)C[C@H](N)C(=O)N2Cc1ccc(Cl)cc1.Cl [Example 77, (3R)-3-amino-5-[(4-chlorophenyl)methyl]-8-fluoro-1,1,4-trioxo-N-(propan-2-yl)-2,3,4,5-tetrahydro-1λ^6,5-benzothiazepine-7-carboxamide hydrochloride]
Living tumor cells (K562 leukemia cells; K562 only, 0.3 μM): 31786.33 | Living tumor cells (K562 leukemia cells; K562 only, 3 μM): 21495.00 | Living tumor cells (K562 leukemia cells; K562 only, 30 μM): 22503.00 | Living tumor cells (K562 leukemia cells; NK cells & K562, 0.01 μM): 696.00 | Living tumor cells (K562 leukemia cells; NK cells & K562, 0.03 μM): 636.00 | Living tumor cells (K562 leukemia cells; NK cells & K562, 0.1 μM): 567.00 | Living tumor cells (K562 leukemia cells; NK cells & K562, 0.3 μM): 589.00 | Living tumor cells (K562 leukemia cells; NK cells & K562, 1 μM): 520.33 | Living tumor cells (K562 leukemia cells; NK cells & K562, 3 μM): 406.33 | Living tumor cells (K562 leukemia cells; NK cells & K562, 10 μM): 398.33 | Living tumor cells (K562 leukemia cells; NK cells & K562, 30 μM): 408.33 | IFN-gamma [ng/ml] Avg ([1]; 0.03 μM, NK cells & K562): 2.20 ng/mL | TNF-alpha [ng/ml] avg ([1]; 0.03 μM, NK cells & K562): 0.08 ng/mL | IFN-gamma [ng/ml] Avg ([1]; 0.03 μM, NK cells only): below | TNF-alpha [ng/ml] avg ([1]; 0.03 μM, NK cells only): below | IFN-gamma [ng/ml] Avg ([1]; 0.1 μM, NK cells & K562): 2.38 ng/mL | TNF-alpha [ng/ml] avg ([1]; 0.1 μM, NK cells & K562): 0.11 ng/mL | IFN-gamma [ng/ml] Avg ([1]; 0.1 μM, NK cells only): below | TNF-alpha [ng/ml] avg ([1]; 0.1 μM, NK cells only): below | IFN-gamma [ng/ml] Avg ([1]; 0.3 μM, NK cells & K562): 6.06 ng/mL | TNF-alpha [ng/ml] avg ([1]; 0.3 μM, NK cells & K562): 0.19 ng/mL | IFN-gamma [ng/ml] Avg ([1]; 0.3 μM, NK cells only): below | TNF-alpha [ng/ml] avg ([1]; 0.3 μM, NK cells only): below | IFN-gamma [ng/ml] Avg ([1]; 1 μM, NK cells & K562): 11.75 ng/mL | TNF-alpha [ng/ml] avg ([1]; 1 μM, NK cells & K562): 0.34 ng/mL | IFN-gamma [ng/ml] Avg ([1]; 1 μM, NK cells only): below | TNF-alpha [ng/ml] avg ([1]; 1 μM, NK cells only): below | IFN-gamma [ng/ml] Avg ([1]; 3 μM, NK cells & K562): 12.11 ng/mL | TNF-alpha [ng/ml] avg ([1]; 3 μM, NK cells & K562): 0.47 ng/mL | IFN-gamma [ng/ml] Avg ([1]; 3 μM, NK cells only): below | TNF-alpha [ng/ml] avg ([1]; 3 μM, NK cells only): below | IFN-gamma [ng/ml] Avg ([1]; 10 μM, NK cells & K562): 17.15 ng/mL | TNF-alpha [ng/ml] avg ([1]; 10 μM, NK cells & K562): 0.57 ng/mL | IFN-gamma [ng/ml] Avg ([1]; 10 μM, NK cells only): below | TNF-alpha [ng/ml] avg ([1]; 10 μM, NK cells only): below | IFN-gamma [ng/ml] Avg ([1]; 30 μM, NK cells & K562): 19.12 ng/mL | TNF-alpha [ng/ml] avg ([1]; 30 μM, NK cells & K562): 0.70 ng/mL | IFN-gamma [ng/ml] Avg ([1]; 30 μM, NK cells only): below | TNF-alpha [ng/ml] avg ([1]; 30 μM, NK cells only): below | CD25+CD69+ ([1]; NK cells & K562, 0.03 μM): 1.77 % gated | Granzyme ([1]; NK cells & K562, 0.03 μM): 0.48 ng/mL | CD25+CD69+ ([1]; NK cells & K562, 0.1 μM): 2.29 % gated | Granzyme ([1]; NK cells & K562, 0.1 μM): 0.52 ng/mL | CD25+CD69+ ([1]; NK cells & K562, 0.3 μM): 4.44 % gated | Granzyme ([1]; NK cells & K562, 0.3 μM): 0.68 ng/mL | CD25+CD69+ ([1]; NK cells & K562, 1 μM): 10.74 % gated | Granzyme ([1]; NK cells & K562, 1 μM): 0.90 ng/mL | CD25+CD69+ ([1]; NK cells & K562, 3 μM): 13.55 % gated | Granzyme ([1]; NK cells & K562, 3 μM): 1.15 ng/mL | CD25+CD69+ ([1]; NK cells & K562, 10 μM): 17.81 % gated | Granzyme ([1]; NK cells & K562, 10 μM): 1.41 ng/mL | CD25+CD69+ ([1]; NK cells & K562, 30 μM): 25.06 % gated | Granzyme ([1]; NK cells & K562, 30 μM): 2.12 ng/mL | production of IFN-gamma and TNF-alpha ([1]; NK cells in co-culture with K562 leukemia cells): enhanced production of both cytokines specifically upon tumor cell contact | enhancement of IFN-gamma and TNF-alpha production ([1]; NK cells in the absence of tumor cells): such effect was not detected in the absence of tumor cells | CD25+CD69+ ([1]; NK cells only, 0.03 μM): 0.01 % gated | Granzyme ([1]; NK cells only, 0.03 μM): 0.08 ng/mL | CD25+CD69+ ([1]; NK cells only, 0.1 μM): 0.02 % gated | Granzyme ([1]; NK cells only, 0.1 μM): 0.06 ng/mL | CD25+CD69+ ([1]; NK cells only, 0.3 μM): 0.05 % gated | Granzyme ([1]; NK cells only, 0.3 μM): 0.08 ng/mL | CD25+CD69+ ([1]; NK cells only, 1 μM): 0.15 % gated | Granzyme ([1]; NK cells only, 1 μM): 0.05 ng/mL | CD25+CD69+ ([1]; NK cells only, 3 μM): 0.24 % gated | Granzyme ([1]; NK cells only, 3 μM): 0.05 ng/mL | CD25+CD69+ ([1]; NK cells only, 10 μM): 0.46 % gated | Granzyme ([1]; NK cells only, 10 μM): 0.10 ng/mL | CD25+CD69+ ([1]; NK cells only, 30 μM): 0.95 % gated | Granzyme ([1]; NK cells only, 30 μM): 0.16 ng/mL
